From ChEMBL document CHEMBL1201862, “PubChem BioAssay data set” (2004)
“And” between values parts separate entries of the source, which are not always exact repeats. Identical values can stand only once.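 Method: 48-hour compound exposure of cells in 96-well plates, five concentrations, linear interpolation of endpoints. GI50 marks 50% less growth.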 The source made the active and inactive calls. Cut-off read from the data, not from the text of the source: active = GI50 up to about 1.1 µM and inactive = higher. Where a SMILES comes first, the peptide text is derived from it. The star is where a group is joined. Cbz = O=C(OCc1ccccc1)*; NHNH2 = NN*

Legend:
Test in all cases: DTP human tumour cell line panel, 48 h
NCI-H460 = system: NCI-H460
IGROV-1 = system: IGROV-1
KM12 = system: KM12
EKVX = system: EKVX
RXF 393 = system: RXF 393
COLO 205 = system: COLO 205
OVCAR-5 = system: OVCAR-5
BT-549 = system: BT-549
CCRF-CEM = system: CCRF-CEM
SW-620 = system: SW-620
SR = system: SR
SF-295 = system: SF-295
OVCAR-3 = system: OVCAR-3
CAKI-1 = system: CAKI-1
ACHN = system: ACHN
NCI/ADR-RES = system: NCI/ADR-RES
SK-MEL-28 = system: SK-MEL-28
SF-268 = system: SF-268

| Structure (SMILES) | GI50 (NCI-H460) | GI50 (IGROV-1) | GI50 (KM12) | GI50 (EKVX) | GI50 (RXF 393) | GI50 (COLO 205) | GI50 (OVCAR-5) | GI50 (BT-549) | GI50 (CCRF-CEM) | GI50 (SW-620) | GI50 (SR) | GI50 (SF-295) | GI50 (OVCAR-3) | GI50 (CAKI-1) | GI50 (ACHN) | GI50 (NCI/ADR-RES) | GI50 (SK-MEL-28) | GI50 (SF-268) |
| --- | --- | --- | --- | --- | --- | --- | --- | --- | --- | --- | --- | --- | --- | --- | --- | --- | --- | --- |
| Cc1cn(C2CC(N(O)Cc3ccccc3)C(CO[Si](C)(C)C(C)(C)C)O2)c(=O)[nH]c1=O (stereo not drawn) | 17.9 µM (inactive) and 17.7 µM (inactive) | 15.7 µM (inactive) and 25.5 µM (inactive) | 23 µM (inactive) and 17.2 µM (inactive) | 25.4 µM (inactive) and 17.8 µM (inactive) | 13.6 µM (inactive) | 18.5 µM (inactive) and 20.9 µM (inactive) | 18.6 µM (inactive) and 19.7 µM (inactive) | 16.4 µM (inactive) and 16.3 µM (inactive) | 30.1 µM (inactive) | 19.4 µM (inactive) and 25.8 µM (inactive) | 31.6 µM (inactive) | 17.2 µM (inactive) and 18.8 µM (inactive) | 17.7 µM (inactive) | 17 µM (inactive) and 26.5 µM (inactive) | 26.7 µM (inactive) and 17.6 µM (inactive) | – | – | – |
| O=C(CCN1CCOCC1)c1ccc(Oc2ccc(F)cc2)cc1 | > 100 µM (inactive) | 19.5 µM (inactive) | 17.4 µM (inactive) | 19 µM (inactive) | – | 23 µM (inactive) | 24.2 µM (inactive) | 18.2 µM (inactive) | 30.8 µM (inactive) | 30.3 µM (inactive) | – | > 100 µM (inactive) | 22.3 µM (inactive) | 18 µM (inactive) | 17.9 µM (inactive) | 26.9 µM (inactive) | 28 µM (inactive) | – |
| COC1=CC23C=CC1[C@@H](c1ccccc1)C2=C(C)C(=O)N3C(=O)NC1CCCCC1 (stereo partly drawn) | 20.1 µM (inactive) | 61.2 µM (inactive) | 31.3 µM (inactive) | 28.7 µM (inactive) | 3.45 µM (inactive) | – | 23.7 µM (inactive) | – | 25.7 µM (inactive) | 19.5 µM (inactive) | 20.2 µM (inactive) | 22.4 µM (inactive) | 24.2 µM (inactive) | 16.9 µM (inactive) | 30.9 µM (inactive) | – | 18.5 µM (inactive) | 15.8 µM (inactive) |
| CCOC(=O)C1=COC(C)(c2ccccc2)CC1=O (stereo not drawn) | > 100 µM (inactive) | – | > 100 µM (inactive) | > 100 µM (inactive) | 63.1 µM (inactive) | > 100 µM (inactive) | > 100 µM (inactive) | > 100 µM (inactive) | – | > 100 µM (inactive) | – | > 100 µM (inactive) | > 100 µM (inactive) | > 100 µM (inactive) | > 100 µM (inactive) | > 100 µM (inactive) | > 100 µM (inactive) | > 100 µM (inactive) |
| COC(=O)[C@]12CC3C=CC1N(C3)C(CBr)c1c2n(S(=O)(=O)c2ccccc2)c2ccccc12 (stereo partly drawn) | 98.6 µM (inactive) | 72.9 µM (inactive) | > 100 µM (inactive) | 80 µM (inactive) | 33.2 µM (inactive) | > 100 µM (inactive) | > 100 µM (inactive) | > 100 µM (inactive) | 47.6 µM (inactive) | > 100 µM (inactive) | – | 42.2 µM (inactive) | 97.7 µM (inactive) | 74.6 µM (inactive) | 48.3 µM (inactive) | > 100 µM (inactive) | > 100 µM (inactive) | – |
| C=CCOCn1ccc(NC(=O)c2ccccc2)nc1=O | > 100 µM (inactive) | > 100 µM (inactive) | > 100 µM (inactive) | > 100 µM (inactive) | – | > 100 µM (inactive) | – | > 100 µM (inactive) | > 100 µM (inactive) | > 100 µM (inactive) | > 100 µM (inactive) | > 100 µM (inactive) | – | > 100 µM (inactive) | > 100 µM (inactive) | – | > 100 µM (inactive) | > 100 µM (inactive) |
| O=[N+]([O-])c1cccc(-c2ncnc(-c3cccc([N+](=O)[O-])c3)n2)c1 | – | > 100 µM (inactive) | > 100 µM (inactive) | > 100 µM (inactive) | 18.5 µM (inactive) | > 100 µM (inactive) | > 100 µM (inactive) | 32.2 µM (inactive) | – | > 100 µM (inactive) | – | 41.6 µM (inactive) | 35.9 µM (inactive) | 18.4 µM (inactive) | – | > 100 µM (inactive) | > 100 µM (inactive) | 54 µM (inactive) |
| O/N=C1/COC(C(F)(F)F)(C(F)(F)F)C1 | > 100 µM (inactive) | > 100 µM (inactive) | > 100 µM (inactive) | > 100 µM (inactive) | > 100 µM (inactive) | > 100 µM (inactive) | > 100 µM (inactive) | – | – | > 100 µM (inactive) | 0.0573 µM (active) | > 100 µM (inactive) | > 100 µM (inactive) | > 100 µM (inactive) | > 100 µM (inactive) | > 100 µM (inactive) | > 100 µM (inactive) | > 100 µM (inactive) |
| CC1(C)[C@@H]2CC[C@]1(C)[C@H](OC(=O)CSC#N)C2 | > 100 µM (inactive) | > 100 µM (inactive) | > 100 µM (inactive) | > 100 µM (inactive) | > 100 µM (inactive) | > 100 µM (inactive) | > 100 µM (inactive) | > 100 µM (inactive) | – | 17.9 µM (inactive) | – | > 100 µM (inactive) | 30.8 µM (inactive) | > 100 µM (inactive) | > 100 µM (inactive) | > 100 µM (inactive) | > 100 µM (inactive) | > 100 µM (inactive) |
| COC(=O)C1=Cc2cc(OC)c(O)cc2[C@@H](c2ccc(O)c(OC)c2)[C@@H]1C(=O)OC | > 100 µM (inactive) | > 100 µM (inactive) | 37.6 µM (inactive) | > 100 µM (inactive) | 61.7 µM (inactive) | > 100 µM (inactive) | > 100 µM (inactive) | – | > 100 µM (inactive) | > 100 µM (inactive) | > 100 µM (inactive) | > 100 µM (inactive) | > 100 µM (inactive) | – | > 100 µM (inactive) | > 100 µM (inactive) | > 100 µM (inactive) | > 100 µM (inactive) |
| O=C1c2ccccc2C(=O)c2c(NCCCN3CCOCC3)ccc(NCCCN3CCOCC3)c21 | 1.54 µM (inactive) | 4.69 µM (inactive) | 3.12 µM (inactive) | 11 µM (inactive) | 8.36 µM (inactive) | – | 9.42 µM (inactive) | 6.62 µM (inactive) | 2.59 µM (inactive) | 3.97 µM (inactive) | 5.57 µM (inactive) | 1.94 µM (inactive) | 4.07 µM (inactive) | 4.45 µM (inactive) | 2.07 µM (inactive) | – | 5.79 µM (inactive) | 2.75 µM (inactive) |
| COC(=O)[C@@H](NC1(c2ccccc2)c2ccccc2-c2ccccc21)[C@H](OC(=O)[C@H]1CCCN1S(=O)(=O)c1ccccc1)C(=O)OC | > 100 µM (inactive) | > 100 µM (inactive) | > 100 µM (inactive) | 99.5 µM (inactive) | > 100 µM (inactive) | > 100 µM (inactive) | > 100 µM (inactive) | – | > 100 µM (inactive) | > 100 µM (inactive) | > 100 µM (inactive) | > 100 µM (inactive) | > 100 µM (inactive) | – | > 100 µM (inactive) | > 100 µM (inactive) | > 100 µM (inactive) | > 100 µM (inactive) |
| COc1ccc(N2C(=O)C(C#N)=C(SC)C(C#N)C2=O)cc1 (stereo not drawn) | > 100 µM (inactive) | > 100 µM (inactive) | > 100 µM (inactive) | > 100 µM (inactive) | > 100 µM (inactive) | > 100 µM (inactive) | > 100 µM (inactive) | > 100 µM (inactive) | > 100 µM (inactive) | > 100 µM (inactive) | – | > 100 µM (inactive) | – | > 100 µM (inactive) | > 100 µM (inactive) | > 100 µM (inactive) | – | > 100 µM (inactive) |
| Cn1c(=O)c2c(ncn2CCSS(=O)(=O)O)n(C)c1=O | 66.4 µM (inactive) | > 100 µM (inactive) | > 100 µM (inactive) | 72.6 µM (inactive) | 79.1 µM (inactive) | > 100 µM (inactive) | > 100 µM (inactive) | > 100 µM (inactive) | – | > 100 µM (inactive) | – | > 100 µM (inactive) | > 100 µM (inactive) | > 100 µM (inactive) | > 100 µM (inactive) | > 100 µM (inactive) | > 100 µM (inactive) | > 100 µM (inactive) |
| CCOC(=O)CCC(NC(=O)OCc1ccccc1)C(=O)NC(CCC(=O)OCC)C(=O)NN (stereo not drawn) (Cbz-Glu(OEt)-Glu(OEt)-NHNH2; configuration not given here) | > 100 µM (inactive) | > 100 µM (inactive) | > 100 µM (inactive) | > 100 µM (inactive) | – | > 100 µM (inactive) | > 100 µM (inactive) | > 100 µM (inactive) | – | > 100 µM (inactive) | > 100 µM (inactive) | – | – | – | > 100 µM (inactive) | – | > 100 µM (inactive) | – |
| COc1cc2c(c(O)c1OC)-c1c(cc(OC)c(OC)c1OC)CC(C)C(C)C2 (stereo not drawn) [GOMISIN K3] | 31.2 µM (inactive) | 51.1 µM (inactive) | 61.1 µM (inactive) | 47.3 µM (inactive) | 30.9 µM (inactive) | 32 µM (inactive) | > 100 µM (inactive) | 40.8 µM (inactive) | 23.4 µM (inactive) | 70.3 µM (inactive) | 31.3 µM (inactive) | 33.9 µM (inactive) | 47.1 µM (inactive) | 42.8 µM (inactive) | 39.1 µM (inactive) | – | 67.1 µM (inactive) | 78 µM (inactive) |
| C=C(CC[C@@H](C(=O)O)[C@H]1[C@H](O)C[C@@]2(C)C3=CC[C@@H](C(=C)C)[C@](C)(CCC(=O)O)C3=CC[C@]12C)C(C)C [PORICOIC ACID A] | 18.2 µM (inactive) | – | 18.3 µM (inactive) | 17.6 µM (inactive) | 17.2 µM (inactive) | 23.1 µM (inactive) | 16.5 µM (inactive) | 18.5 µM (inactive) | 29.6 µM (inactive) | 22.2 µM (inactive) | – | 17.5 µM (inactive) | 19.1 µM (inactive) | 15.2 µM (inactive) | 17.6 µM (inactive) | 19.7 µM (inactive) | 19.4 µM (inactive) | – |
